Source: patent publication US9326513B2, “Fungicidal compositions” (Syngenta Participations AG, priority 2011, dated 2016)
Where “and” joins values, the source holds several entries; their conditions need not be identical. Identical values can stand only once. Like-named read-outs stand apart in the source and are kept apart here.

How the values were obtained:
[1] = tested on: Monographella nivalis (syn. Microdochium nivale, Fusarium nivale); assay: Monographella nivalis (snow mould, foot rot of cereals), PDB microtiter plate, visual after 72 hrs; assay type: cell-based; settings: Monographella nivalis
Botrytis cinerea = Botrytis cinerea (gray mould), PDB microtiter plate, visual after 72 hrs; assay type: cell-based; settings: alone
Gaeumannomvces graminis = Gaeumannomvces graminis (take-all of cereals), PDB microtiter plate, visual after 48 hrs; assay type: cell-based; settings: solo
Text: In the following Tables ‘Activity (%)’ means the assessed experimental activity (% disease control in this test when compared to untreated control leaf disks under the same conditions, which show extensive disease development) and “P” is the expected value calculated (expected) activity according to the COLBY formula (see above). The column headed ‘S?’ indicates whether or not synergy was observed, with ‘y’ meaning that synergy was observed. Gaeumannomvces graminis (Take-all of Cereals) Mycelial fragments of the fungus from cryogenic storage were directly mixed into nutrient broth (PDB potato dextrose broth). After placing a (DMSO) solution of the test compounds into a microtiter plate (96-well format) the nutrient broth containing the fungal spores was added.

Sphaerotheca fuliginea = Sphaerotheca fuliginea (powdery mildew) on cucumber, preventive treatment; assay type: in vivo; settings: solo, 2 days preventive, 10 days after application
Text: In the following Tables 'Activity (%)' means the assessed experimental activity (% disease control in this test when compared to untreated control leaf disks under the same conditions, which show extensive disease development) and “P” is the expected value calculated (expected) activity according to the COLBY formula (see above). The column headed 'S?' indicates whether or not synergy was observed, with 'y' meaning that synergy was observed. Sphaerotheca fuliqinea (Powdery Mildew) on Cucumber, Preventive Treatment […] Cucumber plants with unfolded cotyledons were sprayed with a roomsprayer and 40 ml/4 plants spray volume with the test compounds, either solo or in […] shown in the table below. 2 days after application the plants were infested with spores of Sphaerotheca fuliginea.

Sclerotinia sclerotiorum = Sclerotinia sclerotiorum on oilseed rape, preventive treatment; assay type: in vivo; settings: solo, 1 day preventive, 11 days after application
Text: (§1) In the following Tables ‘Activity (%)’ means the assessed experimental activity (% disease control in this test when compared to untreated control leaf disks under the same conditions, which show extensive disease development) and “P” is the expected value calculated (expected) activity according to the COLBY formula (see above). The column headed ‘S?’ indicates whether or not synergy was observed, with ‘y’ meaning that synergy was observed.
Sclerotinia sclerotiorum on Oilseed Rape, Preventive Treatment
The compound activity was tested under 1 day preventive conditions. Oilseed rape plants with 3 unfolded leafs were sprayed with a track sprayer and 200 I/ha spray volume with the test compounds, either solo or in tankmix as shown in the table below.
1 day after application the plants were infested with a solution of Sclerotinia sclerotiorum mycelium. The plants were placed under plastic hoods and high humidity conditions in a climate chamber at 14 h day/10 h night cycle and 15° C. Disease infestation was evaluated visually 11 days after application and average activity calculated in relation to disease severity on untreated check.

Septoria tritici [2] = assay: Septoria tritici (leaf blotch), YBG microtiter plate, photometric growth inhibition after 6 days; assay type: cell-based; settings: Zymoseptoria tritici, 144 h, solo
Text: as §1
Septoria tritici (Leaf Blotch):
After placing solutions of the test compounds (containing 0.2% DMSO) into a microtiter plate (96-well format), an equal amount of the nutrient broth (YBG) was added to each of the well. Finally the fungal spore solution was added. The test plates were incubated at 20° C. The inhibition of growth was determined photometrically after 6 days and the activity calculated in relation to untreated control.

[3] = tested on: Phakopsora pachyrhizi (triazole tolerant soybeanrust strain); assay: Phakopsora pachyrhizi on soybean, preventive treatment; assay type: in vivo; settings: solo, soybean leaf discs, 1 day preventive, 11 days after application
Pythium ultimum = Pythium ultimum (damping off), PDB microtiter plate, visual after 48 hrs; assay type: cell-based; settings: solo, rate 0.03125 ppm
Septoria tritici [4] = assay: Septoria tritici (leaf blotch), PDB microtiter plate, visual after 72 hrs; assay type: cell-based; settings: Zymoseptoria tritici, single compound, 0.0125 ppm
[5] = tested on: Fusarium graminearum and Fusarium culmorum; assay type: in vivo; settings: solo, wheat, 1 day preventive, 9 days after application
[6] = tested on: Blumeria graminis f. sp. tritici (Erysiphe graminis f. sp. tritici); assay: Blumeria graminis f. sp. tritici / wheat / leaf disc preventative (powdery mildew on wheat); assay type: in vivo; settings: foliar, compared to untreated control leaf disks, read-out: disease control
Outline: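 Wheat leaf segments (cv. Kanzler) on agar were sprayed with formulated compound in water, inoculated with powdery mildew 1 day later, and kept at 20° C, 60% rh (24 h dark, then 12 h light/12 h dark). Percent disease control versus untreated scored 6-8 days after application; tested at 200 ppm.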

[7] = tested on: Puccinia recondita f. sp. tritici; assay: Puccinia recondita f. sp. tritici / wheat / leaf disc preventative (brown rust); assay type: in vivo; settings: foliar, compared to untreated control leaf disks, read-out: disease control
Text: Puccinia recondita f. sp. tritici/Wheat/Leaf Disc Preventative (Brown Rust) Wheat leaf segments cv. Kanzler were placed on agar in multiwell plates (24-well format) and sprayed with the formulated test compound diluted in water. The leaf disks were inoculated with a spore suspension of the fungus 1 day after application.

[8] = tested on: Puccinia recondita f. sp. tritici; assay: Puccinia recondita f. sp. tritici / wheat / leaf disc curative (brown rust); assay type: in vivo; settings: foliar, compared to untreated control leaf disks, read-out: disease control
Description: Puccinia recondita f. sp. tritici/Wheat/Leaf Disc Curative (Brown Rust) Wheat leaf segments cv. Kanzler are placed on agar in multiwell plates (24-well format). The leaf segments are inoculated with a spore suspension of the fungus. Plates were stored in darkness at 19° C. and 75% rh. The formulated test compound diluted in water was applied 1 day after inoculation.

Pyrenophora teres = Pyrenophora teres / barley / leaf disc preventative (net blotch); assay type: in vivo; settings: foliar, compared to untreated control leaf disks, read-out: disease control
Text: Pyrenophora teres/Barley/Leaf Disc Preventative (Net Blotch) Barley leaf segments cv. Hasso were placed on agar in a multiwell plate (24-well format) and sprayed with the formulated test compound diluted in water. The leaf segments were inoculated with a spore suspension of the fungus 2 days after application.

Septoria tritici [9] = assay: Septoria tritici on wheat, preventive treatment; assay type: in vivo; settings: solo, wheat Riband, 1 day preventive, 18 days after application

`Cn1cc(C(=O)Nc2cccc3c2C2CCC3C2=C(Cl)Cl)c(C(F)F)n1` (stereo not drawn) [(V), N-[9-(dichloromethylene)-1,2,3,4-tetrahydro-1,4-methanonaphthalen-5-yl]-3-(difluoromethyl)-1-methyl-1H-pyrazole-4-carboxamide, reference compound] gave an inhibition at 0.03125 ppm ([1]; applied alone, 0.03125 ppm) of 0%, an inhibition at 0.0625 ppm ([1]; applied alone, 0.0625 ppm) of 50% and an inhibition at 0.125 ppm ([1]; applied alone, 0.125 ppm) of 70%. It also gave an inhibition at 0.03125 ppm ([1]; applied alone, rate 0.03125 ppm) of 0%, an inhibition at 0.0625 ppm ([1]; applied alone, rate 0.0625 ppm) of 50% and an inhibition at 0.015625 ppm (Botrytis cinerea; Botrytis cinerea, rate 0.015625 ppm) of 20%. It also gave an inhibition at 0.03125 ppm (Botrytis cinerea; Botrytis cinerea, rate 0.03125 ppm, read-out: Activity (%)) of 50%, an inhibition at 0.0625 ppm (Botrytis cinerea; Botrytis cinerea, rate 0.0625 ppm, read-out: Activity (%)) of 70% and an inhibition at 0.125 ppm (Botrytis cinerea; Botrytis cinerea, rate 0.125 ppm) of 70%. The inhibition at 0.015625 ppm (Gaeumannomvces graminis; rate 0.015625 ppm) was 0%, the inhibition at 0.03125 ppm (Gaeumannomvces graminis; rate 0.03125 ppm) was 20% and the inhibition at 0.0625 ppm (Gaeumannomvces graminis; rate 0.0625 ppm) was 70%.
`CSC(=O)c1cccc2nnsc12` [Acibenzolar-s-methyl] showed an Activity (Sphaerotheca fuliginea; rate 0.6 ppm) of 0%, an Activity (Sphaerotheca fuliginea; rate 2 ppm) of 0% and an Activity (Sphaerotheca fuliginea; rate 6 ppm) of 0%. The Activity (Sphaerotheca fuliginea; rate 20 ppm) was 4%.
In the case of `O=C(Nc1ccccc1-c1ccc(Cl)cc1)c1cccnc1Cl` [Boscalid], the Activity (Sclerotinia sclerotiorum; rate 50 g a.i./ha) is reported as 8% and the Activity (Sclerotinia sclerotiorum; rate 100 g a.i./ha) is reported as 25%.
Compound `CC(C1CC1)C(O)(Cn1cncn1)c1ccc(Cl)cc1` (stereo not drawn) [Cyproconazole] has an inhibition of growth at 0.25 ppm (Septoria tritici [2]; rate 0.25 ppm) of 0%, an inhibition of growth at 0.5 ppm (Septoria tritici [2]; rate 0.5 ppm) of 64% and an inhibition of growth at 1 ppm (Septoria tritici [2]; rate 1 ppm) of 84%. For the same compound, the inhibition of growth at 1.25 ppm (Septoria tritici [2]; rate 1.25 ppm) was 39%, the inhibition of growth at 2.5 ppm (Septoria tritici [2]; rate 2.5 ppm) was 76% and the Activity ([3]; rate 0.5 g ai/ha) was 38%. The Activity ([3]; rate 2 g ai/ha) was 53%.
For `COCC(=O)N(c1c(C)cccc1C)[C@H](C)C(=O)OC` [Mefenoxam], the “Activity (%)” value (Pythium ultimum) was 50%.
In the case of `OC(Cc1ccccc1Cl)(Cn1nc[nH]c1=S)C1(Cl)CC1` (stereo not drawn) [Prothioconazole], the inhibition at 0.0125 ppm ([1]; applied alone, 0.0125 ppm) is reported as 0%, the inhibition at 0.0015625 ppm ([1]; applied alone, rate 0.0015625 ppm) is reported as 0% and the inhibition at 0.003125 ppm ([1]; applied alone, rate 0.003125 ppm) is reported as 0%. It also gave an inhibition at 0.00625 ppm ([1]; applied alone, rate 0.00625 ppm) of 0%, an inhibition at 0.0125 ppm ([1]; applied alone, rate 0.0125 ppm) of 0% and an inhibition at 0.0125 ppm ([1]; single compound, rate 0.0125 ppm) of 0%. It also gave an inhibition at 0.00625 ppm (Botrytis cinerea; Botrytis cinerea, rate 0.00625 ppm) of 0%, an inhibition at 0.0125 ppm (Botrytis cinerea; Botrytis cinerea, rate 0.0125 ppm) of 0% and an inhibition at 0.025 ppm (Botrytis cinerea; Botrytis cinerea, rate 0.025 ppm) of 0%. For the same compound, the inhibition at 0.05 ppm (Botrytis cinerea; Botrytis cinerea, rate 0.05 ppm) was 50%, the “Activity (%)” value (Botrytis cinerea; rate 0.05 ppm) was 70% and the inhibition at 0.0125 ppm (Septoria tritici [4]) was 70%. The inhibition of growth at 0.0195312 ppm (Septoria tritici [2]; rate 0.01953125 ppm) was 69%, the inhibition of growth at 0.03125 ppm (Septoria tritici [2]; rate 0.03125 ppm, read-out: Activity) was 9% and the inhibition of growth at 0.0390625 ppm (Septoria tritici [2]; rate 0.0390625 ppm) was 63%. The inhibition of growth at 0.0625 ppm (Septoria tritici [2]; rate 0.0625 ppm) was 63% and the Activity ([5]; 50 g a.i./ha) was 55%.
In the case of `CCN(C)/C=N/c1cc(Br)c(OC2CC=CC2)nc1C` [Q.063], the pest or weed control at 200 ppm [6] is reported as ≥ 50%, the pest or weed control at 200 ppm [7] is reported as ≥ 50% and the pest or weed control at 200 ppm [8] is reported as ≥ 50%. For the same compound, the pest or weed control at 200 ppm (Pyrenophora teres) was ≥ 50%, the Activity ([3]; rate 0.5 g ai/ha) was 0% and the Activity ([3]; rate 2 g ai/ha) was 0%.
In the case of `CCN(C)/C=N/c1cc(Br)c(OCc2ccccc2C)nc1C` [Q.151], the pest or weed control at 200 ppm [6] is reported as ≥ 50%, the pest or weed control at 200 ppm [7] is reported as ≥ 50% and the pest or weed control at 200 ppm [8] is reported as ≥ 50%. The Activity ([5]; 200 g a.i./ha) was 3%, the Activity (Septoria tritici [9]; 1 g a.i./ha) was 0% and the Activity (Septoria tritici [9]; 3 g a.i./ha) was 0% and 4%. It also gave an Activity (Septoria tritici [9]; 9 g a.i./ha) of 0% and an Activity (Septoria tritici [9]; 81 g a.i./ha) of 43%.
With `CCN(C)/C=N/c1cc(Br)c(OCc2ccc(F)cc2C)nc1C` [Q.320] the pest or weed control at 200 ppm [6] was ≥ 50%, the pest or weed control at 200 ppm [7] was ≥ 50% and the pest or weed control at 200 ppm [8] was ≥ 50%. The pest or weed control at 200 ppm (Pyrenophora teres) was ≥ 50% and the melting point was 27 to 30 °C.
With `CCN(C)/C=N/c1cc(Br)c(OCc2cccc(F)c2C)nc1C` [Q.322] the pest or weed control at 200 ppm [6] was ≥ 50%, the pest or weed control at 200 ppm [7] was ≥ 50% and the pest or weed control at 200 ppm [8] was ≥ 50%. For the same compound, the pest or weed control at 200 ppm (Pyrenophora teres) was ≥ 50% and the melting point was 67 to 68 °C.
With `CCN(C)/C=N/c1cc(Br)c(OCc2c(F)cccc2F)nc1C` [Q.326] the pest or weed control at 200 ppm [6] was ≥ 50%, the pest or weed control at 200 ppm [7] was ≥ 50% and the pest or weed control at 200 ppm [8] was ≥ 50%. The pest or weed control at 200 ppm (Pyrenophora teres) was ≥ 50% and the melting point was 61 to 62 °C.
